{"source": "patent US20230146455A1", "about": "“TREATMENT OF INFLAMMATORY DISEASES WITH PEPTIDES AND PHARMACEUTICAL COMPOSITIONS” (Yuyu Pharma, Inc., priority 2020, published 2023)", "tested_on": "VEGF-A", "assay": "Example 9 Luminex, LPS hPBMCs: VEGF-A", "type": "cell-based, human", "protocol": "Treatment Human PBMCs were pretreated with YY-101, YDE-011 and YDE-043 or reference compound; Xiidra® at various concentration (ranging from 1 nM to 100 uM) for 2 h before stimulation. An equal volume of 0.5% DMSO was used as a vehicle control. Then, the cells were treated with LPS at 5 ug/ml. The supernatants from treated cells were harvested at 24 h and placed in a 96 well for Luminex cytokine & chemokine profiling using a Luminex 200 multiplex assay (Luminex; R&D system, USA).\nThe main study arm with triplicate wells per group in a 24-well plate: • 1. Blank • 2. PBMC: 0.5% DMSO • 3. PBMC+LPS (5 ug/ml) • 4. PBMC+YY-101 100 uM • 5. PBMC+YY-101 10 uM • 6. PBMC+YY-101 1 uM • 7. PBMC+YY-101 0.1 uM • 8. PBMC+YY-101 0.01 uM • 9. PBMC+LPS (5 ug/ml)+Xiidra®100 uM • 10. PBMC+LPS (5 ug/ml)+Xiidra® 10 uM • 11. PBMC+LPS (5 ug/ml)+Xiidra® 1 uM • 12. PBMC+LPS (5 ug/ml)+Xiidra®0.1 uM • 13. PBMC+LPS (5 ug/ml)+Xiidra®0.01 uM • 14. PBMC+LPS (5 ug/ml)+Xiidra®0.001 uM • 15. PBMC+LPS (5 ug/ml)+YY-101 100 uM • 16. PBMC+LPS (5 ug/ml)+YY-101 10 uM • 17. PBMC+LPS (5 ug/ml)+YY-101 1 uM • 18. PBMC+LPS (5 ug/ml)+YY-101 0.1 uM • 19. PBMC+LPS (5 ug/ml)+YY-101 0.01 uM • 20. PBMC+LPS (5 ug/ml)+YY-101 0.001 uM • 21. PBMC+LPS (5 ug/ml)+YDE-011 100 uM • 22. PBMC+LPS (5 ug/ml)+YDE-011 10 uM • 23. PBMC+LPS (5 ug/ml)+YDE-011 1 uM • 24. PBMC+LPS (5 ug/ml)+YDE-011 0.1 uM • 25. PBMC+LPS (5 ug/ml)+YDE-011 0.01 uM • 26. PBMC+LPS (5 ug/ml)+YDE-011 0.001 uM • 27. PBMC+LPS (5 ug/ml)+YDE-043 100 uM • 28. PBMC+LPS (5 ug/ml)+YDE-043 10 uM • 29. PBMC+LPS (5 ug/ml)+YDE-043 1 uM • 30. PBMC+LPS (5 ug/ml)+YDE-043 0.1 uM • 31. PBMC+LPS (5 ug/ml)+YDE-043 0.01 uM • 32. PBMC+LPS (5 ug/ml)+YDE-043 0.001 uM\nMultiplex assay was used to measure 30 cytokines and chemokines. The 1:2, 1:10 and 1:200 diluted cell supernatant and serial dilution of the standard were dispensed into a 96 well plate at 50 ul/well. Then, the pre-mixed cocktail of antibody-coated magnetic beads was dispensed at 50 ul/well and incubated at room temperature for 2 h in a horizontal orbital microplate shaker at 800±500 rpm. The beads were washed using a magnetic device to prevent loss. The biotin-antibody was dispensed in 50 ul of each well and incubated at room temperature for 1 h in a shaker at 800±500 rpm. After washing, streptavidin-PE was added at 50 ul/well and incubated at room temperature for 30 min in a shaker under the same conditions. Finally, after washing, wash buffer (100 ul/well) was added to the plate and incubated in a shaker for 2 min. The Luminex™ 200 setting were set according to the manufacturer's protocol. The data was calculated with a standard five-parameter logistic nonlinear regression analysis of the data (xPonent software 4.2, USA). The levels of cytokine/chemokine are normalized to the live cell counts (1×10^5 cells/mL) and presented as concentrations per mL (pg/mL or ng/mL).", "key": {"[1]": {"conditions": "PBMC + LPS(5 ug/ml) + test article 0.1 uM, Mean"}, "[2]": {"conditions": "PBMC + LPS(5 ug/ml) + test article 0.1 uM, single replicates"}, "[3]": {"conditions": "PBMC + LPS(5 ug/ml) + test article 1 uM, Mean"}, "[4]": {"conditions": "PBMC + LPS(5 ug/ml) + test article 1 uM, single replicates"}, "[5]": {"conditions": "PBMC + LPS(5 ug/ml) + test article 10 uM, Mean"}, "[6]": {"conditions": "PBMC + LPS(5 ug/ml) + test article 10 uM, single replicates"}, "[7]": {"conditions": "PBMC + LPS(5 ug/ml) + test article 100 uM, Mean"}, "[8]": {"conditions": "PBMC + LPS(5 ug/ml) + test article 100 uM, single replicates"}, "[9]": {"conditions": "PBMC + test article 0.01 uM, no LPS, Mean"}, "[10]": {"conditions": "PBMC + test article 0.01 uM, no LPS, single replicates"}, "[11]": {"conditions": "PBMC + test article 0.1 uM, no LPS, Mean"}, "[12]": {"conditions": "PBMC + test article 0.1 uM, no LPS, single replicates"}, "[13]": {"conditions": "PBMC + test article 1 uM, no LPS, Mean"}, "[14]": {"conditions": "PBMC + test article 1 uM, no LPS, single replicates"}, "[15]": {"conditions": "PBMC + test article 10 uM, no LPS, Mean"}, "[16]": {"conditions": "PBMC + test article 10 uM, no LPS, single replicates"}, "[17]": {"conditions": "PBMC + test article 100 uM, no LPS, Mean"}, "[18]": {"conditions": "PBMC + test article 100 uM, no LPS, single replicates"}}, "note": "Values joined by “and” are separate entries in the source; they are usually repeats but may differ in a detail not shown here. Equal entries are not always repeated. Where a SMILES comes first, the peptide text is derived from it. [ ]: non-standard residue; d: D form. Hyp = O=C(O)[C@@H]1C[C@@H](O)CN1", "data": [{"smiles": "CC(C)C[C@H](NC(=O)CNC(=O)[C@H](CC(=O)O)NC(=O)[C@H](CCC(N)=O)NC(=O)CNC(=O)[C@@H]1C[C@@H](O)CN1)C(=O)N[C@@H](C)C(=O)NCC(=O)N1CCC[C@H]1C(=O)N[C@@H](CCCCN)C(=O)O", "note": "[YY-101] (H-[Hyp]GQDGLAGPK-OH; N-terminus and C-terminus assumed)", "values": [{"measurement": "conc/live cell, Bead name: VEGF-A", "setting": "PBMC + LPS(5 ug/ml) + test article 0.01 uM, single replicates", "value": "0.1 pg/10^5 and 0.0 pg/10^5 (2×)"}, {"measurement": "Concentration, Bead name: VEGF-A", "setting": "[1]", "value": 2.6, "unit": "pg/mL"}, {"measurement": "MFI, Bead name: VEGF-A", "setting": "[1]", "value": "−1.1"}, {"measurement": "conc/live cell, Bead name: VEGF-A", "setting": "[1]", "value": 0.4, "unit": "pg/10^5"}, {"measurement": "Concentration, Bead name: VEGF-A", "setting": "[2]", "value": "3.6 pg/ml (2×) and 0.6 pg/ml"}, {"measurement": "MFI, Bead name: VEGF-A", "setting": "[2]", "value": "−0.8 (2×) and −1.8"}, {"measurement": "conc/live cell, Bead name: VEGF-A", "setting": "[2]", "value": "0.6 pg/10^5 (2×) and 0.1 pg/10^5"}, {"measurement": "Concentration, Bead name: VEGF-A", "setting": "[3]", "value": 2.9, "unit": "pg/mL"}, {"measurement": "MFI, Bead name: VEGF-A", "setting": "[3]", "value": "−1.4"}, {"measurement": "conc/live cell, Bead name: VEGF-A", "setting": "[3]", "value": 0.3, "unit": "pg/10^5"}, {"measurement": "Concentration, Bead name: VEGF-A", "setting": "[4]", "value": "2.2 pg/mL and 3.6 pg/mL"}, {"measurement": "MFI, Bead name: VEGF-A", "setting": "[4]", "value": "−2.3 and −1.3 and −0.8"}, {"measurement": "conc/live cell, Bead name: VEGF-A", "setting": "[4]", "value": "0.0 pg/10^5 and 0.3 pg/10^5 and 0.6 pg/10^5"}, {"measurement": "Concentration, Bead name: VEGF-A", "setting": "[5]", "value": 2.7, "unit": "pg/mL"}, {"measurement": "MFI, Bead name: VEGF-A", "setting": "[5]", "value": "−1.1"}, {"measurement": "conc/live cell, Bead name: VEGF-A", "setting": "[5]", "value": 0.4, "unit": "pg/10^5"}, {"measurement": "Concentration, Bead name: VEGF-A", "setting": "[6]", "value": "2.2 pg/ml (2×) and 3.6 pg/ml"}, {"measurement": "MFI, Bead name: VEGF-A", "setting": "[6]", "value": "−1.3 (2×) and −0.8"}, {"measurement": "conc/live cell, Bead name: VEGF-A", "setting": "[6]", "value": "0.4 pg/10^5 and 0.3 pg/10^5 and 0.5 pg/10^5"}, {"measurement": "Concentration, Bead name: VEGF-A", "setting": "[7]", "value": 4.3, "unit": "pg/mL"}, {"measurement": "MFI, Bead name: VEGF-A", "setting": "[7]", "value": "−0.4"}, {"measurement": "conc/live cell, Bead name: VEGF-A", "setting": "[7]", "value": 0.7, "unit": "pg/10^5"}, {"measurement": "Concentration, Bead name: VEGF-A", "setting": "[8]", "value": "6.1 pg/ml (2×) and 0.6 pg/ml"}, {"measurement": "MFI, Bead name: VEGF-A", "setting": "[8]", "value": "0.3 (2×) and −1.8"}, {"measurement": "conc/live cell, Bead name: VEGF-A", "setting": "[8]", "value": "1.0 pg/10^5 (2×) and 0.1 pg/10^5"}, {"measurement": "Concentration, Bead name: VEGF-A", "setting": "[9]", "value": 8.4, "unit": "pg/mL"}, {"measurement": "MFI, Bead name: VEGF-A", "setting": "[9]", "value": 1.3}, {"measurement": "conc/live cell, Bead name: VEGF-A", "setting": "[9]", "value": 1.7, "unit": "pg/10^5"}, {"measurement": "Concentration, Bead name: VEGF-A", "setting": "[10]", "value": "10.7 pg/mL and 6.1 pg/mL"}, {"measurement": "MFI, Bead name: VEGF-A", "setting": "[10]", "value": "2.3 and 0.3"}, {"measurement": "conc/live cell, Bead name: VEGF-A", "setting": "[10]", "value": "2.1 pg/10^5 and 1.3 pg/10^5"}, {"measurement": "Concentration, Bead name: VEGF-A", "setting": "[11]", "value": 7.3, "unit": "pg/mL"}, {"measurement": "MFI, Bead name: VEGF-A", "setting": "[11]", "value": 0.8}, {"measurement": "conc/live cell, Bead name: VEGF-A", "setting": "[11]", "value": 1.4, "unit": "pg/10^5"}, {"measurement": "Concentration, Bead name: VEGF-A", "setting": "[12]", "value": "6.1 pg/mL and 8.5 pg/mL"}, {"measurement": "MFI, Bead name: VEGF-A", "setting": "[12]", "value": "0.3 and 1.3"}, {"measurement": "conc/live cell, Bead name: VEGF-A", "setting": "[12]", "value": "1.4 pg/10^5 and 1.5 pg/10^5"}, {"measurement": "Concentration, Bead name: VEGF-A", "setting": "[13]", "value": 7.3, "unit": "pg/mL"}, {"measurement": "MFI, Bead name: VEGF-A", "setting": "[13]", "value": 0.8}, {"measurement": "conc/live cell, Bead name: VEGF-A", "setting": "[13]", "value": 1.3, "unit": "pg/10^5"}, {"measurement": "Concentration, Bead name: VEGF-A", "setting": "[14]", "value": "8.5 pg/mL and 6.1 pg/mL"}, {"measurement": "MFI, Bead name: VEGF-A", "setting": "[14]", "value": "1.3 and 0.3"}, {"measurement": "conc/live cell, Bead name: VEGF-A", "setting": "[14]", "value": "1.5 pg/10^5 and 1.1 pg/10^5"}, {"measurement": "Concentration, Bead name: VEGF-A", "setting": "[15]", "value": 7.9, "unit": "pg/mL"}, {"measurement": "MFI, Bead name: VEGF-A", "setting": "[15]", "value": 1.0}, {"measurement": "conc/live cell, Bead name: VEGF-A", "setting": "[15]", "value": 1.3, "unit": "pg/10^5"}, {"measurement": "Concentration, Bead name: VEGF-A", "setting": "[16]", "value": "7.3 pg/mL and 8.5 pg/mL"}, {"measurement": "MFI, Bead name: VEGF-A", "setting": "[16]", "value": "0.8 and 1.3"}, {"measurement": "conc/live cell, Bead name: VEGF-A", "setting": "[16]", "value": "1.1 pg/10^5 and 1.4 pg/10^5"}, {"measurement": "Concentration, Bead name: VEGF-A", "setting": "[17]", "value": 3.6, "unit": "pg/mL"}, {"measurement": "MFI, Bead name: VEGF-A", "setting": "[17]", "value": "−0.8"}, {"measurement": "conc/live cell, Bead name: VEGF-A", "setting": "[17]", "value": 0.5, "unit": "pg/10^5"}, {"measurement": "Concentration, Bead name: VEGF-A", "setting": "[18]", "value": 3.6, "unit": "pg/mL"}, {"measurement": "MFI, Bead name: VEGF-A", "setting": "[18]", "value": "−0.8"}, {"measurement": "conc/live cell, Bead name: VEGF-A", "setting": "[18]", "value": "0.6 pg/10^5 and 0.5 pg/10^5"}]}]}
